# From patent US7973062B2, “Androgen receptor-ablative agents” (The Ohio State University Research Foundation, priority 2008, dated 2011)
# pIC50: −log10 of the molar value. “Also recorded” adds a separate entry of the source. Like-named read-outs stand apart in the source and are kept apart here.
# How the values were obtained:
# Assay type in all cases: cell-based
# androgen receptor (AR) = test: Immunocytochemical analysis of AR in LNCaP cells; conditions: 5 μM, 48 h
# Method: Immunocytochemical Analysis. Cells were seeded onto coverslips in six-well plates (2.5×10^5 cells/well) for 24 h followed by exposure to 5 μM compound 12 for an additional 48 h. After extensive washing with PBS, cells were fixed and permeabilized with PBS containing 0.1% Triton X-100 for 1 h, and then incubated with anti-AR (1:100 dilution) in PBS containing 0.1% Triton X-100, 0.2% bovine serum albumin, 0.5 mM PMSF, and 1 mM DTT at room temperature for 12 h followed by Alexa Fluor 488-conjugated goat anti-mouse IgG (1:100; Molecular Probes) for 2 h. Nuclear counterstaining was performed by mounting with 4,6-diamidino-2-phenylindole (DAPI)-containing medium. Images of immunocytochemically labeled samples were observed using a Nikon microscope (Eclipse TE300).
# [1] = test system: androgen receptor (AR) expression; test: Western blot analysis of AR protein expression in LNCaP cells
# Method: RT-PCR and Immunoblotting. LNCaP cells were cultured in T25 flasks at an initial density of 1×10^6 cells/flask. After exposure to various compounds at the indicated conditions, cells were subject to total RNA isolation by using an RNeasy mini-kit (QIAGEN, Valencia, Calif.). RNA concentrations were determined by measuring absorption at 260 nm in a spectrophotometer. Aliquots of 6 μg of total RNA from each sample were reverse-transcribed to cDNA using an Omniscript RT Kit (QIAGEN) according to the manufacturer's instructions, using suitable primers.
# For immunoblotting, protein extracts were prepared by M-PER Mammalian Protein Extraction Reagent (Pierce, Rockford, Ill.) with freshly added 1% phosphatase and protease inhibitor cocktails (Calbiochem) followed by centrifugation at 13,000×g for 10 min. Supernatant was collected and protein concentration was determined by protein assay reagent (Bio-Rad, CA). Protein extracts were then suspended in 2×SDS sample buffer, and subject to 10% SDS-polyacrylamide gels. After electrophoresis, proteins were transferred to nitrocellulose membranes using a semidry transfer cell. The transblotted membrane was washed twice with Tris-buffered saline containing 0.1% Tween 20 (TBST). After blocking with TBST containing 5% nonfat milk for 1 h, the membrane was incubated with mouse monoclonal anti-AR (Santa Cruz) or anti-β-actin (MP Biomedicals) antibodies (diluted 1:1000) in 1% TBST nonfat milk at 4° C. overnight. After incubation with the primary antibody, the membrane was washed three times with TBST for a total of 30 min, followed by incubation with horseradish peroxidase conjugated goat anti-mouse IgG (diluted 1:2500) for 1 h at room temperature. After three thorough washes with TBST for a total of 30 min, the immunoblots were visualized by enhanced chemiluminescence.
# LNCaP and PC-3 cells = test: Cell counting assay for cell proliferation, LNCaP versus PC-3; conditions: Coulter counter (FIG. 5B)
# Method: (§1) Cell Counting and Cell Viability Assay. LNCaP or PC-3 cells were placed in six-well plates (2.5×10^5 cells/well) in 10% FBS-supplemented RPMI 1640 for 24 h, and treated with various concentrations of compound 12 for additional 24, 48 and 72 h. Cells were then trypsinized and counted by using a Coulter counter (Model Z1 D/T, Beckman Coulter, Fullerton, Calif.). Cell viability was assessed by using the 3-(4,5-dimethylthiazol-2-yl)-2,5-diphenyl-2H-tetrazolium bromide (MTT) assay in six replicates in 96-well plates. LNCaP or PC-3 cells were seeded at 6000 cells per well in 10% FBS-supplemented RPMI 1640 for 24 h, followed by treatments with various compounds in 5% FBS-supplemented RPMI 1640 at the indicated concentrations. Controls received DMSO at a concentration equal to that in drug-treated cells. After the end of incubation, MTT (0.5 mg/ml) in 10% FBS-supplemented RPMI 1640 was added to each well, and cells were incubated at 37° C. for 2 hours. Medium was removed and the reduced MTT dye was solubilized in DMSO (200 μl/well). Absorbance was determined at 570 nm by a 96-well plate reader.
# [2] = test system: PC-3 androgen-nonresponsive prostate cancer cells; test: MTT cell viability assay, PC-3 cells; conditions: Homo sapiens, 5% FBS, read-out: IC50 for suppressing cell viability
# Method: as §1
compound,measurement,setting,value
"CC1(CN2C(=O)S/C(=C\c3ccc(O)c(C(F)(F)F)c3)C2=O)CCCCC1 [Compound 12, 5-(4-Hydroxy-3-trifluoromethyl-benzylidene)-3-(1-methyl-cyclohexylmethyl)-thiazolidine-2,4-dione]",AR levels in the nucleus,androgen receptor (AR),substantial decrease in AR levels in the nucleus
same,AR expression level after compound washed out of the medium,"[1]; 5 μM, washout then drug-free medium (FIG. 6C)",rapidly restored
same,suppression of AR protein expression (in words),"[1]; 10% FBS, 72 h, Western blot",completely inhibited AR expression in LNCaP cells at low μM concentrations; also recorded: an-order-of-magnitude higher potency than ciglitazone
same,pIC50,"[1]; 72-h exposure, Western blot (FIG. 4C), read-out: IC50 for suppressing AR expression",~5.70
same,potency in inhibiting proliferation of LNCaP cells compared to PC-3 cells,LNCaP and PC-3 cells,at least twofold higher potency
same,pIC50,[2]; 48 h,4.82
same,pIC50,[2]; 72 h,4.92
